These results are taken from patent publication US12544421B2, “VDAC inhibitors for treating inflammatory bowel diseases” (THE NATIONAL INSTITUTE FOR BIOTECHNOLOGY IN THE NEGEV LTD., priority 2018, dated 2026).

Experiment [1] deals with DSS-induced IBD mice. Description: Dextran sodium sulfate (DSS)-induced colitis / IBD mouse model: weight, survival, colon and cecum length, clinical score, spleen weight. It is filed as in vivo, C57BL/6 mice. From the text: Healthy female, specific pathogen free (SPF) C57BL/6 (H-2b), 6-7 weeks old mice were obtained from Invigo, Israel. Animal housing and care conditions was maintained according to the experimental protocols approved by the Institutional Animal Care and Use Committee. Mice were weighed and examined for health.
Animals were provided ad libitum a commercial rodent diet, and free access to either regular or DSS-containing drinking water for the respective designated test groups, supplied to each cage via polyethylene bottles with stainless steel sipper tubes.
Dextran sodium sulfate (DSS)-induced colitis was used.
All animals were subjected to experimental Colitis induction by providing DSS in the drinking water, continuously supplied ad libitum for 6 days, followed subsequently by 8 days of regular drinking water until study termination on day 14 (FIG. 1A).
Determination of individual body weights of mice was performed before disease induction and thereafter once daily, starting from study day 0 until the time of scheduled euthanasia of survivors on Day 14.
Animals were observed, and clinical signs recorded once daily starting from study day 1 and onwards until the time of scheduled euthanasia. Evaluation of clinical signs was scored according to the grading system listed below.
Immediately after euthanasia, the entire large intestine from the ileo-caecal junction to the anus were removed, weighed and the length of the colon was measured using a ruler.
The Maximal Scores of all mice in each group was be summed, and the MMS calculation was as follows: […]
The mean colon length of each group was calculated, and the percentage of shortening of the colon was calculated as follows: […]
The mean caecum length of each group was calculated, and the percentage of shortening of caecum was calculated as follows: […]

For experiment [2], the system named is colon of DSS-induced IBD mice. Description: Histological sections of colon of DSS-induced IBD mice (H&E, anti-VDAC1 immunostaining). The class given is in vivo, C57BL/6 mice. From the text:
FIGS. 6A-6D are micrographs of histological sections of DSS-induced IBD in C57BL/6 mice, stained with hematoxylin and eosin (H&E). Scale bar represents 100 μm. (6A) Control; (6B) 2.5% DSS; (6C) DSS+VBIT-4; and (6D) DSS+VBIT-12.
FIGS. 7A-7D are micrographs of histological sections of DSS-induced IBD in C57BL/6 mice highlighting the effects of VBIT-4 and VIBT-12 on the colon wall thickness and lymphatic infiltration thereto. (7A) Control; (7B) 2.5% DSS; (7C) DSS+VBIT-12; and […] DSS+VBIT-4.
FIGS. 8A-8D are micrographs of histological sections of DSS-induced IBD in C57BL/6 mice, immunostained with an anti VDAC-1 specific antibody. (8A) Control; (8B) 2.5% DSS; (8C) 2.5% DSS+VBIT-4; and (8D) 2.5% DSS+VBIT-12.
IBD colons were also found to contain large lymphatic sacks and also experienced high infiltration of inflammatory cells towards the colonic lumen.

The next experiment concerns CT-26 cells and MEFs. Description: H2O2-induced mtDNA release from cells in culture. The class given is cell-based, mouse. The following applies: 20 μM compound, 100 or 200 μM H2O2, 20 h, CT-26 and MEFs. The method, then: Murine colorectal carcinoma cell line from a BALB/c mouse (CT26) and mouse embryonic fibroblast (MEF) cell lines were grown at 37° C. under an atmosphere of 95% air and 5% CO2 in DMEM supplemented with 10% FBS, 2 mM L-glutamine, 1,000 U/ml penicillin and 1 mg/ml streptomycin.
Cells were seeded (150,000 cells/well) in 6-well culture dishes to 40-60% confluence. After 24 h cells were incubated for 20 h with 100 or 200 μM of H2O2 in the absence or the presence of VBIT-4 and VBIT-12. Cells washed and subjected to mtDNA release as described below. For VDAC1 silencing, CT-26 cells were seeded (150,000 cells/well) in 6-well culture dishes to 40-60% confluence. After 24 h cells were transfected with 75 nM of non-targeting siRNA (si-NT) or siRNA targeting VDAC1 recognizing both human and mouse VDAC1 (si-m/hVDAC1) using the JetPRIME transfection reagent, according to the manufacturers' instructions. Forty-eight (48) h post-transfection with either si-NT or si-m/hVDAC1, cells were incubated for 20 h with 100 μM of H2O2. Cells washed and subject to mtDNA release as described below.
Cells (e.g., CT-26, MFFs) were re-suspended in 170 μl digitonin buffer containing 150 mM NaCl, 50 mM HEPES pH 7.4, and 25 μg/ml digitonin (EMD Millipore Corp). The homogenates are incubated on a rotator for 10 min at room temperature, followed by centrifugation at 16,000 g for 25 min at 4° C. […]

The subject of experiment [3] is DSS-induced IBD mice. The experiment is described as follows: Dextran sodium sulfate (DSS)-induced colitis / IBD mouse model: weight, survival, colon and cecum length, clinical score, spleen weight. It is filed as in vivo, C57BL/6 mice. The source holds these as a separate data set.
Setting [4] is: DSS-induced IBD mice, 20 mg/kg, n=6.
Setting [5] is: DSS-induced IBD mice, 20 mg/kg, value before the brackets.
The mark [6] stands for this setting: DSS-induced IBD mice, 20 mg/kg, value in brackets.

For the compound `O=C(CC(CO)N1CCN(c2ccc(OC(F)(F)F)cc2)CC1)Nc1ccc(Cl)cc1` (centres unmarked) [VBIT-4, N-(4-chlorophenyl)-4-hydroxy-3-(4-(4-(trifluoromethoxy)phenyl)-piperazin-1-yl)butanamide], in the experiment with DSS-induced IBD mice [1] (2.5% DSS, 20 mg/kg, n=6), the “% Mortality” value is 33.3% and the “died (number of mice)” value stood at 2. Moreover, in the experiment on DSS-induced IBD mice [1] (DSS-induced IBD mice), the “Body weight at experiment termination versus DSS-induced IBD mice (in words)” value is “higher weights” and the “Survival rate at experiment termination versus DSS-induced IBD mice (in words)” value is “increased survival rates”. In the experiment with DSS-induced IBD mice [1] (setting [4]), the “Cecum length, mm” value is 8.7 ± 2.4 mm; the “MMS (mean maximal score; stool consistency and rectal bleeding, 0-5)” value amounted to 3.05 ± 0.55. Besides, in the experiment on DSS-induced IBD mice [1] (DSS-induced IBD mice, 20 mg/kg, n=6, at termination), the “Colon length, mm” value is on record as 48.00 ± 4.84 mm. In the experiment with DSS-induced IBD mice [1] (setting [5]), the “Change of weight, day 1 to day 8 (absolute)” value was −3.2 gr and the “Change of weight, day 8 to day 15 (absolute)” value was determined as 1.7 gr. Besides, in the experiment on DSS-induced IBD mice [1] (setting [6]), the “Change (%) of weight, day 1 to day 8” value is −20.8% and the “Colon, % Shortening relative to the DSS-induced control (=100)” value worked out at 73%. Further, the “Cecum, % Shortening” value in the experiment on DSS-induced IBD mice [1] (DSS-induced IBD mice, 20 mg/kg, versus naive) amounted to 33.1%. The “Colon, % Shortening” value in the experiment on DSS-induced IBD mice [1] (DSS-induced IBD mice, 20 mg/kg, versus naive, value before the brackets) worked out at 26.2%. For the same compound, the “Weight (gr) day 1” value in the experiment on DSS-induced IBD mice [1] (DSS-induced IBD mice, compound 20 mg/kg, day 1) amounted to 15.4 gr. Moreover, the “Weight (gr) day 8” value with DSS-induced IBD mice [1] (DSS-induced IBD mice, compound 20 mg/kg, day 8) is 12.2 gr. For the same compound, the “Colon histology: inflammatory cells and infiltration” value in experiment [2] (compared to IBD mice) is listed as “fewer inflammatory cells with reduced/no infiltration activity”. In experiment [2] (compared to IBD mice and non-IBD control), the “Colon histology: colon wall thickness / villi” value was “thinner colon walls”. Also, the “Release of mtDNA from cells induced by H2O2” value with CT-26 cells and MEFs is reported as “inhibited”. Moreover, the “Change (%) of weight, day 8 to day 15” value in the experiment on DSS-induced IBD mice [3] (20 mg/kg, value in brackets) is 13.9%. In the experiment with DSS-induced IBD mice [3] (compound 20 mg/kg, day 15), the “Weight (gr) day 15” value came to 13.9 gr.
